Data: US20200031920A1, “Combination Therapy for Treating Cancer” (The George Washington University, priority 2017, published 2020)

Assays:
SKOV3 CR cells [1] = assay: combinational high throughput screen with cisplatin; type: cell-based; details: in combination with DMSO, 1 μM cisplatin or 20 μM cisplatin
Description: A combinational HTS using multiple compound libraries including NPC (NIH Pharmaceutical Collection), MIPE (Mechanism interrogation plate), and LOPAC (The Library of Pharmacologically Active Compounds) was used to identify compounds that can overcome cisplatin resistance of SKOV3 CR cells (FIG. 5). The library of pharmacologically active compounds (LOPAC®) of 1280 compounds (1) was purchased from Sigma. The NCGC Pharmaceutical Collection (NPC) of 2816 compounds and mechanism interrogation plate (MIPE) library of 1920 compounds were previously described. Bromberg, J Clin Invest 109: 1139-1142 (2002) and Buchert et al., Oncogene 35: 939-951 (2016). Compounds from all libraries were obtained as powder and dissolved in dimethyl sulfoxide (DMSO) […]. Combinational HTS was performed as previously described. Szasz et al., Oncotarget 7: 49322-49333 (2016). A total of 6,016 compounds were screened. […] In the second screen, these 112 compounds were selected for a dose-response confirmation screen in combination with DMSO, 1 μM cisplatin or 20 μM cisplatin (FIG. 5).

SKOV3 CR cells [2] = assay: clonogenic (colony formation) assay; type: cell-based; details: 0.1 μM LY2784544 and 0.5 μM cisplatin, 14 days
Procedure: FIG. 16 is an illustration showing representative colony formation (A) and bar graphs ((B)-(C)). SKOV3 parental and resistant cells were treated with 0.1 μM LY2784544 and 0.5 μM cisplatin for 14 days and quantification data of colony formation assays ((B) and (C)). Colonies in (A) were stained with crystal violet. Data are represented as mean±SD from three independent experiments performed in triplicate. *p<0.05, **p<0.01, ***p<0.001.
Clonogenic assays were conducted to evaluate the cell survival of SKOV3 and SKOV3 CR cells in response to cisplatin, LY2784544, or both cisplatin and LY2784544. […] Currently, carboplatin-based chemotherapy becomes a universal choice. The synergistic effect of LY2784544 with carboplatin on SKOV3 CR cells was also examined.

SKOV3 CR cells [3] = assay: cell viability / proliferation (SRB) assay, cisplatin resistant SKOV3 CR cells; type: cell-based; details: combination with carboplatin, CI<1 synergism
PEO1 cells = assay: cell proliferation assay, PEO1 cells; type: cell-based; details: 5 days
Description: FIG. 63 is a line graph showing the proliferation of PEO1 and PEO4 cells treated with increasing concentrations of cisplatin for 5 days. Data are represented as mean±SD from three independent experiments performed in triplicate. Indicated IC50 values represent the mean of […] independent experiments performed in triplicate.
For ovarian cancer, recurrence more than 12 months after initial chemotherapy was considered as platinum sensitive. PEO4 was derived from the patient 10 months later when they had progressive disease and had become cisplatin resistant.

IL-11 = IL-11 secretion by ELISA in cell culture medium; type: cell-based, human; details: SKOV3 cells, various small doses of cisplatin, four days
Procedure: (§1) FIG. 69 are bar graphs ((A)-(C) and (E)-(F)) and illustrations ((D) and (G)) showing that reactive oxygen species (ROS) induces IL-11 expression. (A) is a bar graph showing quantification of ROS production in SKOV3 and SKOV3 CR cells. Data are represented as means±SD from three independent experiments. **p<0.01. Scale bar, 100 μm. (B) is a bar graph showing quantification of ROS production in SKOV3 CR cells after treatment with the ROS inhibitor YCG063 at 20 μM for 24 hr. Data are represented as means±SD from three independent experiments. ***p<0.001. (C) is a bar graph showing IL-11 levels measured by ELISA in the medium of SKOV3 CR cells treated with YCG063 at 20 μM for 24 hr. Data are represented as mean±SD from three independent experiments performed in triplicate. ***p<0.001. (D) is an illustration showing an immunoblot of phosphorylated JAK2 and STAT5 in SKOV3 CR cells treated with YCG063 (20 μM) for 24 hr. (E) is a bar graph showing quantification of ROS production in SKOV3 cells after treated with the ROS inhibitor YCG063 (20 μM), cisplatin (1 μM), or both for 24 hr. Data are represented as means±SD from three independent experiments. **p<0.01, ***p<0.001, n.s. means not significant by one-way ANOVA. (F) is a bar graph showing IL-11 levels measured by ELISA in SKOV3 cells treated with YCG063 (20 μM), cisplatin (1 μM) or both for 24 hr. Data are represented as mean±SD from three independent experiments performed in triplicate. ***p<0.001 by one-way ANOVA. (G) is an illustration showing an immunoblot of phosphorylated JAK2 and STAT5 in SKOV3 CR cells treated with YCG063 (20 μM), cisplatin (1 μM) or both for 24 hr.
Next, the factor from medium that contributes to cisplatin resistance of SKOV3 CR cells was investigated. […] The cell-free culture medium, mouse serum, and patient serum were analyzed for IL-11 levels using a human IL-11 ELISA kit (R&D Systems) according to the manufacturer's instructions. The absorbance was read at 450 nm using a microplate reader (BioTek). The data were normalized to the cell number. […]

[4] = tested on: reactive oxygen species (ROS); assay: ROS production (CellROX Orange reagent); type: cell-based; details: SKOV3 cells, YCG063 20 μM, cisplatin 1 μM, 24 hr
Procedure: as §1, with “(D) is an illustration showing an immunoblot of phosphorylated JAK2 and STAT5 in SKOV3 CR cells treated with YCG063 (20 μM) for 24 hr.” left out, “Data are represented as means±SD from three independent experiments. **p<0.01, ***p<0.001, n.s. means not significant by one-way ANOVA.” left out, “Data are represented as mean±SD from three independent experiments performed in triplicate. ***p<0.001 by one-way ANOVA. (G) is an illustration showing an immunoblot of phosphorylated JAK2 and STAT5 in SKOV3 CR cells treated with YCG063 (20 μM), cisplatin (1 μM) or both for 24 hr.” left out
DNA damage induces generation of reactive oxygen species (ROS). […] ROS was detected with a live cell-permeable, fluorophore CellROX Orange reagent (Thermo Fisher Scientific) according to the manufacturer's instructions. […] ROS intensity was analyzed using ImageJ (NIH) software. […]

How did the “sensitization to cisplatin in second (dose-response confirmation) screen” value (SKOV3 CR cells [1]) turn out when Cc1cc(Nc2cc(CN3CCOCC3)c3nc(C)c(Cc4ccc(Cl)cc4F)n3n2)n[nH]1 [LY2784544] was run?
Its value is “significantly sensitize SKOV3 CR cells to cisplatin”.

And the “cell survival, combined treatment compared to cisplatin treatment” value (SKOV3 CR cells [2])?
Its value is “significantly reduced the survival of SKOV3 CR”.

And the “medium CI (combination index)” value (SKOV3 CR cells [3])?
The value was 0.75.

N.N.[Cl][Pt][Cl] [cisplatin] was tested. Which IC50 (PEO1 cells) did it give?
Its IC50 is 320 nM.

And the IL-11 secretion (IL-11)?
The IL-11 secretion was “increased in a cisplatin dose dependent manner”.

What about the ROS production [4] of the same compound?
The ROS production was “activated ROS production”.
